{"source": "patent US20260265189A1", "about": "“NOVEL COMPOUND, AND PHARMACEUTICAL COMPOSITION COMPRISING SAME AS ACTIVE INGREDIENT” (SAPIENSBIO INC., priority 2022, published 2026)", "data": [{"system": "α-SMA expression in MRC5 cells", "test": "inhibition of α-SMA expression in MRC5 cells, image screening method", "format": "cell-based", "conditions": "Homo sapiens; MRC5, compound 10 μM, TGF-β1 5 ng/mL, 72 hours, relative to TGF-β1 alone; read-out: Inhibitory activity (α-SMA expression inhibition)", "protocol": "The ability of the compounds according to the present invention to inhibit the expression of α-SMA, which is a biomarker for pulmonary fibrosis, was evaluated by an image screening method. MRC5 cells were treated with the compound (10 μM) or DMSO under the condition of TGF-31 (5 ng/mL). 72 hours later, the cells were fixed with a 4% formaldehyde solution, treated with a 0.1% Triton-x100 solution, and treated with a 1% BSA solution to mask non-specific binding caused by antibodies. Anti-α-SMA-FITC (Sigma Aldrich) and anti-GAPDH (Cell Signaling Technology) were used as primary antibodies, and anti-mouse-TRITC was used as a secondary antibody. Imaging and analysis of the results were performed using Cytation5_Gen5_Version 3.12.08 (Bio Tek). Relative to the α-SMA expression level when TGF-31 was treated alone, the α-SMA expression level when both the compound and TGF-31 were treated was calculated as the ability of α-SMA expression inhibition of the corresponding compound.", "units": {"inhibition at 10 µM": "%"}, "values": [{"smiles": "CN1CCC(NC(=O)N2CCN(Cc3ccccc3F)c3ccccc32)CC1", "note": "[Compound 88, 4-(2-fluorobenzyl)-N-(1-methylpiperidin-4-yl)-3,4-dihydroquinoxaline-1(2H)-carboxamide]", "inhibition at 10 µM": "50 to 70"}, {"smiles": "CN1CC[C@H](NC(=O)N2CCN(c3ccc(F)cc3)c3cc(F)ccc32)C1", "note": "[Compound 9, (S)-6-fluoro-4-(4-fluorophenyl)-N-(1-methylpyrrolidin-3-yl)-3,4-dihydroquinoxaline-1(2H)-carboxamide]", "inhibition at 10 µM": "50 to 70"}, {"smiles": "CN1CC[C@H](CNC(=O)N2CCN(c3ccc(F)cc3)c3ccccc32)C1", "note": "[Compound 54, (R)-4-(4-fluorophenyl)-N-((1-methylpyrrolidin-3-yl)methyl)-3,4-dihydroquinoxaline-1(2H)-carboxamide]", "inhibition at 10 µM": "30 to 50"}, {"smiles": "CC(C)CN1CCC(CNC(=O)N2CCN(c3ccc(F)cc3)c3cc(F)ccc32)CC1", "note": "[Compound 35, 6-fluoro-4-(4-fluorophenyl)-N-((1-isobutylpiperidin-4-yl)methyl)-3,4-dihydroquinoxaline-1(2H)-carboxamide]", "inhibition at 10 µM": "≥ 70"}, {"smiles": "CS(=O)(=O)N1CC[C@@H](NC(=O)N2CCN(c3ccc(F)cc3)c3cc(F)ccc32)C1", "note": "[Compound 7, (R)-6-fluoro-4-(4-fluorophenyl)-N-(1-(methylsulfonyl)pyrrolidin-3-yl)-3,4-dihydroquinoxaline-1(2H)-carboxamide]", "inhibition at 10 µM": "10 to 30"}, {"smiles": "O=C(N1CCCCC1)N1CCN(C2CCCCC2)c2ccccc21", "note": "[Compound 109, (4-cyclohexyl-3,4-dihydroquinoxalin-1(2H)-yl)(piperidin-1-yl)methanone]", "inhibition at 10 µM": "30 to 50"}, {"smiles": "CC(=O)N1CC[C@@H](NC(=O)N2CCN(c3ccccn3)c3ccccc32)C1", "note": "[Compound 70, (R)-N-(1-acetylpyrrolidin-3-yl)-4-(pyridin-2-yl)-3,4-dihydroquinoxaline-1(2H)-carboxamide]", "inhibition at 10 µM": "10 to 30"}, {"smiles": "CC(C)CN1CC(CNC(=O)N2CCN(c3ccc(F)cc3)c3cc(F)ccc32)C1", "note": "[Compound 47, 6-fluoro-4-(4-fluorophenyl)-N-((1-isobutylazetidin-3-yl)methyl)-3,4-dihydroquinoxaline-1(2H)-carboxamide]", "inhibition at 10 µM": "50 to 70"}, {"smiles": "CC(C)N1CC[C@@H](CNC(=O)N2CCN(c3ccc(F)cc3)c3cc(F)ccc32)C1", "note": "[Compound 26, (S)-6-fluoro-4-(4-fluorophenyl)-N-((1-isopropylpyrrolidin-3-yl)methyl)-3,4-dihydroquinoxaline-1(2H)-carboxamide]", "inhibition at 10 µM": "50 to 70"}, {"smiles": "CN1CC[C@H](CNC(=O)N2CCN(c3ccc(F)cc3)c3cc(F)ccc32)C1", "note": "[Compound 18, (R)-6-fluoro-4-(4-fluorophenyl)-N-((1-methylpyrrolidin-3-yl)methyl)-3,4-dihydroquinoxaline-1(2H)-carboxamide]", "inhibition at 10 µM": "50 to 70"}, {"smiles": "CN1CC[C@@H](CNC(=O)N2CCN(c3ccc(F)cc3)c3cc(F)ccc32)C1", "note": "[Compound 25, (S)-6-fluoro-4-(4-fluorophenyl)-N-((1-methylpyrrolidin-3-yl)methyl)-3,4-dihydroquinoxaline-1(2H)-carboxamide]", "inhibition at 10 µM": "50 to 70"}, {"smiles": "N#Cc1ccc(N2CCN(C(=O)NC[C@H]3CCNC3)c3ccccc32)cc1", "note": "[Compound 79, (S)-4-(4-cyanophenyl)-N-(pyrrolidin-3-ylmethyl)-3,4-dihydroquinoxaline-1(2H)-carboxamide]", "inhibition at 10 µM": "10 to 30"}, {"smiles": "CC(C)CN1CC[C@H](CNC(=O)N2CCN(c3ccc(F)cc3)c3cc(F)ccc32)C1", "note": "[Compound 20, (R)-6-fluoro-4-(4-fluorophenyl)-N-((1-isobutylpyrrolidin-3-yl)methyl)-3,4-dihydroquinoxaline-1(2H)-carboxamide]", "inhibition at 10 µM": "≥ 70"}, {"smiles": "CC(C)(C)CC(=O)N1CCN(C(=O)NC[C@@H]2CCNC2)c2ccccc21", "note": "[Compound 129, (R)-4-(3,3-dimethylbutanoyl)-N-(pyrrolidin-3-ylmethyl)-3,4-dihydroquinoxaline-1(2H)-carboxamide]", "inhibition at 10 µM": "10 to 30"}, {"smiles": "O=C(N[C@@H]1CCNC1)N1CCN(Cc2ccc(F)cc2)c2ccccc21", "note": "[Compound 91, (R)-4-(4-fluorobenzyl)-N-(pyrrolidin-3-yl)-3,4-dihydroquinoxaline-1(2H)-carboxamide]", "inhibition at 10 µM": "50 to 70"}, {"smiles": "O=C(N[C@@H]1CCNC1)N1CCN(C2CCCCC2)c2ccccc21", "note": "[Compound 104, (R)-4-cyclohexyl-N-(pyrrolidin-3-yl)-3,4-dihydroquinoxaline-1(2H)-carboxamide]", "inhibition at 10 µM": "10 to 30"}, {"smiles": "O=C(N[C@H]1CCNC1)N1CCN(c2cnccn2)c2ccccc21", "note": "[Compound 80, (S)-4-(pyrazin-2-yl)-N-(pyrrolidin-3-yl)-3,4-dihydroquinoxaline-1(2H)-carboxamide]", "inhibition at 10 µM": "10 to 30"}, {"smiles": "O=C(N[C@@H]1CCNC1)N1CCN(Cc2ccc(Cl)cc2)c2ccccc21", "note": "[Compound 95, (R)-4-(4-chlorobenzyl)-N-(pyrrolidin-3-yl)-3,4-dihydroquinoxaline-1(2H)-carboxamide]", "inhibition at 10 µM": "≥ 70"}, {"smiles": "CC(C)CN1CC[C@H](CNC(=O)N2CCN(c3ccc(F)cc3)c3ccccc32)C1", "note": "[Compound 56, (R)-4-(4-fluorophenyl)-N-((1-isobutylpyrrolidin-3-yl)methyl)-3,4-dihydroquinoxaline-1(2H)-carboxamide]", "inhibition at 10 µM": "30 to 50"}, {"smiles": "CC(C)CN1CCC(NC(=O)N2CCN(c3cnccn3)c3ccccc32)CC1", "note": "[Compound 82, N-(1-isobutylpiperidin-4-yl)-4-(pyrazin-2-yl)-3,4-dihydroquinoxaline-1(2H)-carboxamide]", "inhibition at 10 µM": "10 to 30"}, {"smiles": "CC(=O)N1CC[C@@H](NC(=O)N2CCN(c3ccc(F)cc3)c3cc(F)ccc32)C1", "note": "[Compound 6, (R)-N-(1-acetylpyrrolidin-3-yl)-6-fluoro-4-(4-fluorophenyl)-3,4-dihydroquinoxaline-1(2H)-carboxamide]", "inhibition at 10 µM": "10 to 30"}, {"smiles": "O=C(NC1CCNCC1)N1CCN(c2ccc(F)cc2)c2ccccc21", "note": "[Compound 50, 4-(4-fluorophenyl)-N-(piperidin-4-yl)-3,4-dihydroquinoxaline-1(2H)-carboxamide]", "inhibition at 10 µM": "30 to 50"}, {"smiles": "CN1CC[C@H](CNC(=O)N2CCN(Cc3ccccc3F)c3ccccc32)C1", "note": "[Compound 90, (R)-4-(2-fluorobenzyl)-N-((1-methylpyrrolidin-3-yl)methyl)-3,4-dihydroquinoxaline-1(2H)-carboxamide]", "inhibition at 10 µM": "30 to 50"}, {"smiles": "O=C(N[C@@H]1CCN(C(=O)C(F)(F)F)C1)N1CCN(c2ccc(F)cc2)c2cc(F)ccc21", "note": "[Compound 5, (R)-6-fluoro-4-(4-fluorophenyl)-N-(1-(2,2,2-trifluoroacetyl)pyrrolidin-3-yl)-3,4-dihydroquinoxaline-1(2H)-carboxamide]", "inhibition at 10 µM": "10 to 30"}, {"smiles": "O=C(NC1COC1)N1CCN(Cc2ccccn2)c2ccccc21", "note": "[Compound 99, N-(oxetan-3-yl)-4-(pyridin-2-ylmethyl)-3,4-dihydroquinoxaline-1(2H)-carboxamide]", "inhibition at 10 µM": "30 to 50"}, {"smiles": "CC(C)CN1CC[C@@H](NC(=O)N2CCN(c3ccc(F)cc3)c3cc(F)ccc32)C1", "note": "[Compound 4, (R)-6-fluoro-4-(4-fluorophenyl)-N-(1-isobutylpyrrolidin-3-yl)-3,4-dihydroquinoxaline-1(2H)-carboxamide]", "inhibition at 10 µM": "≥ 70"}, {"smiles": "CN1CC[C@@H](NC(=O)N2CCN(Cc3ccccc3F)c3ccccc32)C1", "note": "[Compound 87, (R)-4-(2-fluorobenzyl)-N-(1-methylpyrrolidin-3-yl)-3,4-dihydroquinoxaline-1(2H)-carboxamide]", "inhibition at 10 µM": "50 to 70"}]}]}
